Reference: US9962369B2, “Methods and compositions for transdermal delivery” (SPRAYABLE HOLDINGS, INC., priority 2014, dated 2018)

Assay: Transdermal delivery of melatonin: plasma level of melatonin after applying composition to skin of a subject
Conditions: control 2.0 ml of […] melatonin suspension in water, plasma level at 1, 2, 4, 8 hours
[1] = 0.60 mL of 7% helper ester + 0.5% melatonin in water on skin of the back (20 cm×20 cm)

| Compound | transdermal delivery of melatonin compared to control composition (A) (0.375 mL of 7% helper ester + 0.8% melatonin in water on skin of the back (20 cm×20 cm)) | transdermal delivery of melatonin compared to control composition (A) [1] |
| --- | --- | --- |
| CCCCN(CCCC)CCOC(=O)c1ccccc1OC(C)=O [2-(Dibutylamino)ethyl 2-acetoxybenzoate] | more efficient and effective transdermal delivery of melatonin |  |
| COC(=O)[C@@H](N)CC(C)C [Leucine methyl ester] |  | more efficient and effective transdermal delivery of melatonin |
| CC(C)OC(=O)[C@@H](N)Cc1ccccc1 [Phenylalanine isopropyl ester] |  | more efficient and effective transdermal delivery of melatonin |
| CC(C)C[C@H](N)C(=O)OC(C)C [Leucine isopropyl ester] |  | more efficient and effective transdermal delivery of melatonin |
